Laboratory results as given in patent publication US20230151432A1, “KIF18A INHIBITORS FOR TREATMENT OF NEOPLASTIC DISEASES” (AMGEN INC., priority 2020, published 2023).
pEC50, pIC50: −log10 of the molar value. Where two headings read alike, the source gives them in different places.

Key:
MDA-MB-157 TNBC cells = assay: Imaging-based Centrosome Count Assay (CCA); assay type: cell-based; details: Homo sapiens, 24 hours of treatment
Experimental: To analyze the effects of a KIF18A inhibitor on the mitotic phenotype of cancer cells, an imaging-based Centrosome Count Assay (CCA) carried out using a KIF18A inhibitor was carried out. In preparation for plating, MDA-MB-157 TNBC cells were resuspended seven times through a 10 mL syringe with 18-G needle to create a single-cell suspension. Cells were seeded at a density of 30 000 cells per well using the BRAVO Automated Liquid Handling Platform (Agilent Technologies, Santa Clara, Calif.) into Corning 96-well Flat Clear Bottom Black Polystyrene plate (Corning, N.Y.) in 100 μL of complete media and grown for 24 hours. […] Imaging data was acquired on Cellomics ArrayScan VTI HCS Reader (SN03090745F, ThermoFisher Scientific) using the SpotDetector.V4 Assay protocol (Ver 6.6.0 (Build 8153) with a 20×objective, experiment #1 collected 100-fields per well; experiment #2 collected 67-fields per well). […] The percentage of mitotic objects with >2 pericentrin spots (proxy for centrosome number) was determined for each well. […] This represents the total valid p-Histone H3 positive mitotic object count based on the set fluorescence intensity threshold using alexa-647 (channel 3). • (3) % Selected Object pHH3. […]

[1] = tested on: panel of cancer cell lines including breast cancer cell lines, ovary cancer cell lines, and a prostate cancer cell line; assay: 4-day image-based nuclear count assay (NCA), cancer cell line panel; design: species or system human
Experimental: Eg5 motor inhibitor (Ispinesib) was used as a cytotoxic control. […] Cancer cell lines were seeded in a Corning 96-well Flat Clear Bottom Black Polystyrene plate (Corning, N.Y.) in 100 μL of appropriate complete media at the appropriate density and grown for 24 hours. In one set of experiments, in preparation for cell treatment, a 2× concentration of one of: […] The compound was added to the cells with a final volume of 200 μL in complete media containing 0.5% DMSO. After 4 days (96 hours) or 6 days (144 hours) of treatment, the cells were fixed by removing 100 μL of complete media from each well and replacing it with 100 μL of 2×formaldehyde (final 4%) and incubating the plates for 15 minutes at room temperature. After fixation, the cells were permeabilized and stained in 200 μL Wash Buffer (1% BSA, 0.2% Triton X-100, 1×PBS) containing 2 μg/mL Hoechst 33342 DNA dye. The plates were sealed and incubated for 1 hour at room temperature in the dark. Cells were stored at 4° C. in the dark until data acquisition. Imaging data was acquired on Cellomics ArrayScan VTI HCS Reader (SN03090745F, ThermoFisher Scientific) using the Target Activation V4 Assay protocol (Ve 6.6.0 (Build 8153) with a 10×objective, collected 16-fields per well). […] A Mean Count EC50 value (±SD) across all sensitive cell lines was determined for each test agent.

[2] = target: T1, Recombinant human KIF18A (1-467 His-tagged) protein (Homo sapiens, UniProt Q8NI77); assay: KIF18A Enzyme Assay (microtubule-stimulated ATPase activity, ADP-Glo); assay type: biochemical; details: 30 nM KIF18A, 75 μM ATP
T1 construct: Recombinant human KIF18A (1-467 His-tagged) protein; His; made in house
Experimental: KIF18A Enzyme Assay: Microtubule-stimulated ATPase activity assay was used to measure KIF18A enzyme activity after treatment with compound. Compounds were 2-fold serially diluted in DMSO (Sigma Inc) over 22-point concentration range. […] The assay measures ADP formed from the ATPase reaction.
Concentration-response curve-fitting and IC50 determination was performed using Genedata Screener Software (Standard 15.0.1, Genedata Inc) with a four-parameter logistic regression fit model.

T1 sequence (Q8NI77 1-467): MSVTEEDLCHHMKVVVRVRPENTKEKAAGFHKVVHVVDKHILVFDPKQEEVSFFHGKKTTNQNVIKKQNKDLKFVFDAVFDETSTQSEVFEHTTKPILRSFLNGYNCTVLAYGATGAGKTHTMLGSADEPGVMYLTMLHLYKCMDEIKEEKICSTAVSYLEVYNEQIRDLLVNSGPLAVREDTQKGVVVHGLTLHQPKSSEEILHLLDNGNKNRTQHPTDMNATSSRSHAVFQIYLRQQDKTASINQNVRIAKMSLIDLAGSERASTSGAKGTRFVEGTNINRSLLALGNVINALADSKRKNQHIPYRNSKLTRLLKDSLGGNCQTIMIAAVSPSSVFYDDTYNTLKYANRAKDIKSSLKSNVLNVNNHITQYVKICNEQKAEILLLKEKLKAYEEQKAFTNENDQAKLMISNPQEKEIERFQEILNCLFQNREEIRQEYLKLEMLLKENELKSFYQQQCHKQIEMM
T1 sequence (P02550 whole entry partner): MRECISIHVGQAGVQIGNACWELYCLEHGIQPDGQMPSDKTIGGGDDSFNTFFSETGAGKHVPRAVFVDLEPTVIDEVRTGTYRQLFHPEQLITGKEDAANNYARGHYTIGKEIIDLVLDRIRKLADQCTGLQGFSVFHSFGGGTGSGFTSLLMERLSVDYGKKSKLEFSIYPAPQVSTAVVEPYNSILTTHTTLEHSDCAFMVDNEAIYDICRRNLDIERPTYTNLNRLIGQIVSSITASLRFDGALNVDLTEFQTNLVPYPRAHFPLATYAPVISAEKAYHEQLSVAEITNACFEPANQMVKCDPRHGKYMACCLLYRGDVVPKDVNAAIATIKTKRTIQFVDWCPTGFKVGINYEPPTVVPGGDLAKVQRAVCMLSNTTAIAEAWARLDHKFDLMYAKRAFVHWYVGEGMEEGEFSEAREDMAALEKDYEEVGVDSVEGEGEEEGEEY
T1 sequence (P02554 whole entry partner): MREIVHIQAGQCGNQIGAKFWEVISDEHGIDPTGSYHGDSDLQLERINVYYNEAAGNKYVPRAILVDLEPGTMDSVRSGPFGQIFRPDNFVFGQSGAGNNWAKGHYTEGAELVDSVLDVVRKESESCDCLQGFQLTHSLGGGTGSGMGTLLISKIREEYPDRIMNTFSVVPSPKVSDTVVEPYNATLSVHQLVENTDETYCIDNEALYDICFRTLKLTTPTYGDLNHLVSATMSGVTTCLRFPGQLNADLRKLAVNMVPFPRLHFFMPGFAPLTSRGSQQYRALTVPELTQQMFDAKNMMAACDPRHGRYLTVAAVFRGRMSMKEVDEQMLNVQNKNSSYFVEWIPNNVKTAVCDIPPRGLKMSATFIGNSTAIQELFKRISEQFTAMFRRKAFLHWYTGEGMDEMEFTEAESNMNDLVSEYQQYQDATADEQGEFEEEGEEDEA

| SMILES | pEC50 (MDA-MB-157 TNBC cells; read-out: EC50, increase in p-Histone H3 positive cells) | pEC50 (MDA-MB-157 TNBC cells; read-out: EC50, pericentrin spotting (>2 spots per mitotic object)) | pEC50 ([1]; Homo sapiens, 96 h, mean across the seven sensitive (TP53 mutant) of twelve cell lines, SD ±0.008) | sensitivity in nuclear count assay ([1]; five Rb-proficient lines: CAL-51, ZR-75-1, MCF-7, OVCAR-5 (TP53 WT), MDA-MB-453 (TP53 NULL)) | pIC50 [2] |
| --- | --- | --- | --- | --- | --- |
| Cc1cc(NC(=O)c2ccc(NS(=O)(=O)CCO)cc2N2CCC3(CC2)CC3)nc(N2CCC(F)(F)CC2)n1 [Compound C14, N-(2-(4,4-Difluoropiperidin-1-yl)-6-methylpyrimidin-4-yl)-4-((2-hydroxyethyl)sulfonamido)-2-(6-azaspiro[2.5]octan-6-yl)benzamide] | 7.10 | 7.28 | 7.25 | insensitive (if the Span did not exceed >50%, the cell line was considered insensitive) | – |
| CC(C)(CO)Nc1ccc(C(=O)Nc2cccc(S(=O)(=O)C3CCCC3)c2)c(N2CCC3(CC2)CC3)n1 [Compound C11, N-(3-(cyclopentylsulfonyl)phenyl)-6-((1-hydroxy-2-methylpropan-2-yl)amino)-2-(6-azaspiro[2.5]octan-6-yl)nicotinamide] | – | – | – | – | 7.39 |
